Measured values as given in US12251387B2, “Substituted quinoxalines and benzo[c][1,2,5]oxadiazoles as DNA-PK inhibitors” (Vertex Pharmaceuticals Incorporated, priority 2013, dated 2025).

What follows are compounds tested against DNA-PK (Homo sapiens, UniProt P78527) (assay: DNA-PK Inhibition Assay (standard radiometric kinase assay, 33P-ATP, peptide substrate)). Details: radiometric assay, approximately 6 nM DNA-PK, 100 μM ATP, 45 min; fit to competitive tight-binding inhibition; read-out: Ki for the inhibition of DNA-PK.
Format: biochemical
Protocol: Compounds were screened for their ability to inhibit DNA-PK kinase using a standard radiometric assay. Briefly, in this kinase assay the transfer of the terminal ^33P-phosphate in ^33P-ATP to a peptide substrate is interrogated. The assay was carried out in 384-well plates to a final volume of 50 μL per well containing approximately 6 nM DNA-PK, 50 mM HEPES (pH 7.5), 10 mM MgCl2, 25 mM NaCl, 0.01% BSA, 1 mM DTT, 10 μg/mL sheared double-stranded DNA (obtained from Sigma), 0.8 mg/mL DNA-PK peptide (Glu-Pro-Pro-Leu-Ser-Gln-Glu-Ala-Phe-Ala-Asp-Leu-Trp-Lys-Lys-Lys, obtained from American Peptide), and 100 μM ATP. Accordingly, compounds of the invention were dissolved in DMSO to make 10 mM initial stock solutions. Serial dilutions in DMSO were then made to obtain the final solutions for the assay. A 0.75 μL aliquot of DMSO or inhibitor in DMSO was added to each well, followed by the addition of ATP substrate solution containing ^33P-ATP (obtained from Perkin Elmer). The reaction was started by the addition of DNA-PK, peptide and ds-DNA. After 45 min, the reaction was quenched with 25 μL of 5% phosphoric acid. The reaction mixture was transferred to MultiScreen HTS 384-well PH plates (obtained from Millipore), allowed to bind for one hour, and washed three times with 1% phosphoric acid. Following the addition of 50 μL of Ultima Gold™ high efficiency scintillant (obtained from Perkin Elmer), the samples were counted in a Packard TopCount NXT Microplate Scintillation and Luminescence Counter (Packard BioScience). The Ki values were calculated using Microsoft Excel Solver macros to fit the data to the kinetic model for competitive tight-binding inhibition.

| SMILES | Ki [µM] |
| --- | --- |
| c1cnc(O[C@H]2CC[C@H](Oc3cc(N4CCOCC4)cc4nccnc34)CC2)nc1 [Compound 34, 4-(8-(((trans)-4-(pyrimidin-2-yloxy)cyclohexyl)oxy)quinoxalin-6-yl)morpholine] | < 0.1 |
| Clc1ccc(N[C@H]2CC[C@@H](Oc3cc(N4CCOCC4)cc4nccnc34)CC2)nn1 [Compound 40] | < 0.1 |
| CC(C)Nc1cnc(N[C@H]2CC[C@@H](Oc3cc(N4CCOCC4)cc4nccnc34)CC2)nc1 [Compound 152] | < 0.1 |
| Cc1noc(-c2ccc(N[C@H]3CC[C@@H](Oc4cc(N5CCOCC5)cc5nccnc45)CC3)nc2)n1 [Compound 278] | < 0.1 |
| CCOc1nccc(N[C@H]2CC[C@@H](Oc3cc(N4CCOCC4)cc4nccnc34)CC2)n1 [Compound 279] | < 0.1 |
| Oc1nccc(N[C@H]2CC[C@@H](Oc3cc(N4CCOCC4)cc4nccnc34)CC2)n1 [Compound 280] | < 0.1 |
| CC(C)(O)c1ccc(N[C@H]2CC[C@@H](Oc3cc(N4CCOCC4)cc4nccnc34)CC2)nc1 [Compound 281] | < 0.1 |
| Cc1cnc(N[C@H]2CC[C@@H](Oc3cc(N4CCOCC4)cc4nccnc34)CC2)cn1 [Compound 282] | < 0.1 |
| Cc1ccnc(N[C@H]2CC[C@@H](Oc3cc(N4CCOCC4)cc4nccnc34)CC2)c1 [Compound 283] | < 0.1 |
| Cc1csc(N[C@H]2CC[C@@H](Oc3cc(N4CCOCC4)cc4nccnc34)CC2)n1 [Compound 284] | < 0.1 |
| Cc1cc(N[C@H]2CC[C@@H](Oc3cc(N4CCOCC4)cc4nccnc34)CC2)ccn1 [Compound 285] | < 0.1 |
| Cc1cc(N[C@H]2CC[C@@H](Oc3cc(N4CCOCC4)cc4nccnc34)CC2)cc(C)n1 [Compound 286] | < 0.1 |
| CNC(=O)c1cnc(N[C@H]2CC[C@@H](Oc3cc(N4CCOCC4)cc4nccnc34)CC2)nc1C [Compound 287] | < 0.1 |
| Cc1nccc(N[C@H]2CC[C@@H](Oc3cc(C4=COCC4)cc4nccnc34)CC2)n1 [Compound 288] | < 0.1 |
| Cc1nccc(N[C@H]2CC[C@@H](Oc3cc(C4=CCOC4)cc4nccnc34)CC2)n1 [Compound 289] | < 0.1 |
| Cc1nccc(N[C@H]2CC[C@@H](Oc3cc(N4CCO[C@H](C)C4)cc4nccnc34)CC2)n1 [Compound 290] | < 0.1 |
| c1cnc(N[C@H]2CC[C@@H](Oc3cc(N4CC5CC(C4)O5)cc4nccnc34)CC2)nc1 [Compound 291, N-[4-[7-(6-oxa-3-azabicyclo[3.1.1]heptan-3-yl)quinoxalin-5-yl]oxycyclohexyl]pyrimidin-2-amine] | < 0.1 |
| CCc1ncnc(N[C@H]2CC[C@@H](Oc3cc(C4=CCOCC4)cc4nccnc34)CC2)c1F [Compound 295] | < 0.1 |
| CC(C)(C)OC(=O)N1CCn2cnc(N[C@H]3CC[C@@H](Oc4cc(N5CCOCC5)cc5nccnc45)CC3)c2C1 [Compound 296] | < 0.1 |
| Cc1nccc(N[C@H]2CC[C@@H](Oc3cc(N4CC5CCC(C4)O5)cc4nccnc34)CC2)n1 [Compound 297] | < 0.1 |
| Cn1nc(N[C@H]2CC[C@@H](Oc3cc(N4CCOCC4)cc4nccnc34)CC2)c2ccccc21 [Compound 298] | < 0.1 |
| Cc1cc(C)n2nc(N[C@H]3CC[C@@H](Oc4cc(N5CCOCC5)cc5nccnc45)CC3)nc2n1 [Compound 299] | < 0.1 |
| c1cnc(N[C@H]2C[C@@H](COc3cc(N4CCOCC4)cc4nccnc34)C2)nc1 [Compound 305] | < 0.1 |
| c1cnc(NC[C@H]2C[C@@H](Oc3cc(N4CCOCC4)cc4nccnc34)C2)nc1 [Compound 307] | < 0.1 |
| CNC(=O)c1cc(C)nc(N[C@H]2CC[C@@H](Oc3cc(N4CCOCC4)cc4nccnc34)CC2)n1 [Compound 308] | < 0.1 |
| COCc1cc(N[C@H]2CC[C@@H](Oc3cc(N4CC5CC(C4)O5)cc4nccnc34)CC2)nc(C)n1 [Compound 309] | < 0.1 |

Second part, the compound after the results:

| Ki [µM] | SMILES |
| --- | --- |
| < 0.1 | Cc1nnc2c(N[C@H]3CC[C@@H](Oc4cc(N5CCOCC5)cc5nccnc45)CC3)nccn12 [Compound 310] |
| < 0.1 | Cn1ccc(N[C@H]2CC[C@@H](Oc3cc(N4CCOCC4)cc4nccnc34)CC2)cc1=O [Compound 311] |
| < 0.1 | COc1nccnc1N[C@H]1CC[C@@H](Oc2cc(N3CCOCC3)cc3nccnc23)CC1 [Compound 312] |
| < 0.1 | Cc1ncn2ccnc(N[C@H]3CC[C@@H](Oc4cc(N5CCOCC5)cc5nccnc45)CC3)c12 [Compound 313] |
| < 0.1 | Cc1ncc(N[C@H]2CC[C@@H](Oc3cc(N4CCOCC4)cc4nccnc34)CC2)nc1C [Compound 314] |
| < 0.1 | CNC(=O)c1cc(N[C@H]2CC[C@@H](Oc3cc(N4CC5CC(C4)O5)cc4nccnc34)CC2)ncn1 [Compound 315] |
| < 0.1 | Cc1nccc(N[C@H]2CC[C@@H](Oc3cc(N4CCOCC4)cc4nonc34)CC2)n1 [Compound 316] |
| < 0.1 | CNC(=O)c1ccnc(N[C@H]2CC[C@@H](Oc3cc(N4CC5CC(C4)O5)cc4nccnc34)CC2)n1 [Compound 317] |
| < 0.1 | CCc1ncnc(N[C@H]2CC[C@@H](Oc3cc(N4CC5CC(C4)O5)cc4nccnc34)CC2)c1F [Compound 318] |
| < 0.1 | CNC(=O)c1ccnc(N[C@H]2CC[C@@H](Oc3cc(C4=CCOCC4)cc4nccnc34)CC2)n1 [Compound 319] |
| < 0.1 | Cc1nccc(N[C@H]2CC[C@@H](Oc3cc(N4CCO[C@H](CO)C4)cc4nccnc34)CC2)n1 [Compound 320] |
| < 0.1 | CNC(=O)c1cc(N[C@H]2CC[C@@H](Oc3cc(C4=CCOCC4)cc4nccnc34)CC2)ncn1 [Compound 321] |
| < 0.1 | O=C1NCCc2nc(N[C@H]3CC[C@@H](Oc4cc(N5CCOCC5)cc5nccnc45)CC3)sc21 [Compound 322] |
| < 0.1 | Cc1cnc(N[C@H]2CC[C@@H](Oc3cc(N4CCOCC4)cc4nccnc34)CC2)c(C)n1 [Compound 323] |
| < 0.1 | CCOc1cc(N[C@H]2CC[C@@H](Oc3cc(N4CCOCC4)cc4nccnc34)CC2)ccn1 [Compound 324] |
| < 0.1 | O=c1cc(N[C@H]2CC[C@@H](Oc3cc(N4CCOCC4)cc4nccnc34)CC2)cc[nH]1 [Compound 325] |
| < 0.1 | Cc1cc(N[C@H]2CC[C@@H](Oc3cc(N4CCOCC4)cc4nccnc34)CC2)nn1C [Compound 326] |
| < 0.1 | CN1CC[C@@H](Nc2ncnc(N[C@H]3CC[C@@H](Oc4cc(N5CCOCC5)cc5nccnc45)CC3)c2F)C1 [Compound 327] |
| < 0.1 | CN(C)CCNC(=O)c1cnc(N[C@H]2CC[C@@H](Oc3cc(N4CCOCC4)cc4nccnc34)CC2)nc1 [Compound 328] |

| Ki [µM] | SMILES |
| --- | --- |
| < 0.1 | Cn1nc(N[C@H]2CC[C@@H](Oc3cc(N4CCOCC4)cc4nccnc34)CC2)c2cccnc21 [Compound 329] |
| < 0.1 | c1cnc2nc(N[C@H]3CC[C@@H](Oc4cc(N5CCOCC5)cc5nccnc45)CC3)sc2c1 [Compound 330] |
| < 0.1 | NC(=O)c1csc(N[C@H]2CC[C@@H](Oc3cc(N4CCOCC4)cc4nccnc34)CC2)n1 [Compound 331] |
| < 0.1 | Cc1cnc(C)c(N[C@H]2CC[C@@H](Oc3cc(N4CCOCC4)cc4nccnc34)CC2)n1 [Compound 333] |
| < 0.1 | CCOc1cnc(N[C@H]2CC[C@@H](Oc3cc(N4CCOCC4)cc4nccnc34)CC2)cn1 [Compound 334] |
| < 0.1 | Cc1nccnc1N[C@H]1CC[C@@H](Oc2cc(N3CCOCC3)cc3nccnc23)CC1 [Compound 335] |
| < 0.1 | c1cnc2c(O[C@H]3CC[C@@H](Nc4cncc5nccn45)CC3)cc(N3CCOCC3)cc2n1 [Compound 336] |
| < 0.1 | CN1CCN(C(=O)c2cnc(N[C@H]3CC[C@@H](Oc4cc(N5CCOCC5)cc5nccnc45)CC3)nc2)CC1 [Compound 337] |
| < 0.1 | c1cc2c(c(N[C@H]3CC[C@@H](Oc4cc(N5CCOCC5)cc5nccnc45)CC3)c1)OCC2 [Compound 338] |
| < 0.1 | c1cc(N[C@H]2CC[C@@H](Oc3cc(N4CCOCC4)cc4nccnc34)CC2)c2c(c1)OCO2 [Compound 339] |
| < 0.1 | CN1Cc2c(N[C@H]3CC[C@@H](Oc4cc(N5CCOCC5)cc5nccnc45)CC3)cccc2C1=O [Compound 340] |
| < 0.1 | CC(C)(O)c1ncc(N[C@H]2CC[C@@H](Oc3cc(N4CCOCC4)cc4nccnc34)CC2)cn1 [Compound 341] |
| < 0.1 | CN1CC[C@H](Nc2ncnc(N[C@H]3CC[C@@H](Oc4cc(N5CCOCC5)cc5nccnc45)CC3)c2F)C1 [Compound 343] |
| < 0.1 | COc1cncc(NC[C@H]2CC[C@@H](Oc3cc(N4CCOCC4)cc4nccnc34)CC2)c1 [Compound 347] |
| < 0.1 | c1cnc(NC[C@H]2CC[C@@H](Oc3cc(N4CCOCC4)cc4nccnc34)CC2)nc1 [Compound 348] |
| < 0.1 | CC(C)Oc1cc(N[C@H]2CC[C@@H](Oc3cc(N4CCOCC4)cc4nccnc34)CC2)ccn1 [Compound 349] |
| < 0.1 | CNC(=O)c1ccnc(N[C@H]2CC[C@@H](Oc3cc(N4CCOCC4)cc4nccnc34)CC2)n1 [Compound 350] |
| < 0.1 | CN(C)C(=O)c1ccnc(N[C@H]2CC[C@@H](Oc3cc(N4CCOCC4)cc4nccnc34)CC2)n1 [Compound 351] |
